The text below walks through data of PMC4457528, “Identification of Novel Small Molecule Inhibitors of Oncogenic RET Kinase” (PLoS ONE, 2015).

Like-named read-outs stand apart in the source and are kept apart here.

Test in all cases: KinomeScan kinase panel, single concentration 10 µM
Common to all, as to format: binding

Test [1] addresses T1, KinomeScan kinase panel (Homo sapiens, UniProt O75116).
T1 construct: purchased DiscoveRx (KinomeScan)
Conditions: read-out: score (%).

Test [2] concerns the target T2, KinomeScan kinase panel (Homo sapiens, UniProt Q00536).
T2 construct: purchased DiscoveRx (KinomeScan)
Conditions: PCTK1, 10 µM; read-out: score (%).

Test [3] deals with T3, KinomeScan kinase panel (Homo sapiens, UniProt Q12851).
T3 construct: purchased DiscoveRx (KinomeScan)
T3 sequence (Q12851 1-820): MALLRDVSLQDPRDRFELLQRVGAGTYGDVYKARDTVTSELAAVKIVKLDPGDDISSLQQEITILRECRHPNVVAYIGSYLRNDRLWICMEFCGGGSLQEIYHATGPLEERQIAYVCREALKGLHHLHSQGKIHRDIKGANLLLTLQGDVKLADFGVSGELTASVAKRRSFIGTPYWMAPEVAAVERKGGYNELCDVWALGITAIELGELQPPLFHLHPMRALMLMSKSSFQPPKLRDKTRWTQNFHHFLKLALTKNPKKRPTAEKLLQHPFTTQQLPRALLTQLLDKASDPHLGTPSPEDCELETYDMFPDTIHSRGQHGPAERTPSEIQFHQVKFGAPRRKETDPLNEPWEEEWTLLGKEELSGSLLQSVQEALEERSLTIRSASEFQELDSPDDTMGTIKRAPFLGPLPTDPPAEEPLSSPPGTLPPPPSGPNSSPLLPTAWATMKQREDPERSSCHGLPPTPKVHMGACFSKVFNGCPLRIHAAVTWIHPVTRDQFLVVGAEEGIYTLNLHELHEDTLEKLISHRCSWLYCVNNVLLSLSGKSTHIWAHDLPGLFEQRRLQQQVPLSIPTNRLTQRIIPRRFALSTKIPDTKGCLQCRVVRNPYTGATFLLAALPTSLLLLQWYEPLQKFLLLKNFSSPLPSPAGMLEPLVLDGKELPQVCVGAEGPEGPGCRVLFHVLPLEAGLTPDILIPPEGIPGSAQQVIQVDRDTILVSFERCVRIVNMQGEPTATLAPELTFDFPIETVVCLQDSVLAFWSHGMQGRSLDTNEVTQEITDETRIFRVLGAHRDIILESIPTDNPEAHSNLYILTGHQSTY
The conditions noted are these: MAP4K2, 10 µM; read-out: score (%).

The target of test [4] is T4, KinomeScan kinase panel (Homo sapiens, UniProt Q15139).
T4 construct: purchased DiscoveRx (KinomeScan)
T4 sequence (Q15139 1-912): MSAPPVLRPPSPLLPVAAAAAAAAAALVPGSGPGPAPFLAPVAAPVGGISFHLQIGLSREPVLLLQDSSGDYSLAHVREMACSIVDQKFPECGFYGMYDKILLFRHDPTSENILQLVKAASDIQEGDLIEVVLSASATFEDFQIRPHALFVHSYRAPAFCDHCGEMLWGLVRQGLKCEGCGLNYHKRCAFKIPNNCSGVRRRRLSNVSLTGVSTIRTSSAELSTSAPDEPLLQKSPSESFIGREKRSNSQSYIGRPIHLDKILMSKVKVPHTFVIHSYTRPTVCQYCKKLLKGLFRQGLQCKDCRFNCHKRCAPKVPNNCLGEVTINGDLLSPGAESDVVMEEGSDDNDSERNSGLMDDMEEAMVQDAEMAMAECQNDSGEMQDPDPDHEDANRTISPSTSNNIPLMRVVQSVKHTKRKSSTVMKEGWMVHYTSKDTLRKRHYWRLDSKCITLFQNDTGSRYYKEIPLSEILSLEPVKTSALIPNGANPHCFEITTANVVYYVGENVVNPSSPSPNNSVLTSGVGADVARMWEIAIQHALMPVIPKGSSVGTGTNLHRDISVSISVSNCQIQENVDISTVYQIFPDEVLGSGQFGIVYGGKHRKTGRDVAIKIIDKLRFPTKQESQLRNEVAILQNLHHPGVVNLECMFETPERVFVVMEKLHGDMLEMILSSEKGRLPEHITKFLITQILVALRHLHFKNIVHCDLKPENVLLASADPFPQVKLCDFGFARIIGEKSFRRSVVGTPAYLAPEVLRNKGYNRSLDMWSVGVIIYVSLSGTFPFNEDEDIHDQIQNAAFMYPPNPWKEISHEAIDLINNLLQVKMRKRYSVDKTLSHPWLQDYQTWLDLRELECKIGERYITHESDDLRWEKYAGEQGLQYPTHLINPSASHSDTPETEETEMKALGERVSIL
The conditions noted are these: read-out: score (%).

Test [5] addresses T5, KinomeScan kinase panel (Homo sapiens, UniProt Q9UF33).
T5 construct: purchased DiscoveRx (KinomeScan)
T5 sequence (Q9UF33 23-1036): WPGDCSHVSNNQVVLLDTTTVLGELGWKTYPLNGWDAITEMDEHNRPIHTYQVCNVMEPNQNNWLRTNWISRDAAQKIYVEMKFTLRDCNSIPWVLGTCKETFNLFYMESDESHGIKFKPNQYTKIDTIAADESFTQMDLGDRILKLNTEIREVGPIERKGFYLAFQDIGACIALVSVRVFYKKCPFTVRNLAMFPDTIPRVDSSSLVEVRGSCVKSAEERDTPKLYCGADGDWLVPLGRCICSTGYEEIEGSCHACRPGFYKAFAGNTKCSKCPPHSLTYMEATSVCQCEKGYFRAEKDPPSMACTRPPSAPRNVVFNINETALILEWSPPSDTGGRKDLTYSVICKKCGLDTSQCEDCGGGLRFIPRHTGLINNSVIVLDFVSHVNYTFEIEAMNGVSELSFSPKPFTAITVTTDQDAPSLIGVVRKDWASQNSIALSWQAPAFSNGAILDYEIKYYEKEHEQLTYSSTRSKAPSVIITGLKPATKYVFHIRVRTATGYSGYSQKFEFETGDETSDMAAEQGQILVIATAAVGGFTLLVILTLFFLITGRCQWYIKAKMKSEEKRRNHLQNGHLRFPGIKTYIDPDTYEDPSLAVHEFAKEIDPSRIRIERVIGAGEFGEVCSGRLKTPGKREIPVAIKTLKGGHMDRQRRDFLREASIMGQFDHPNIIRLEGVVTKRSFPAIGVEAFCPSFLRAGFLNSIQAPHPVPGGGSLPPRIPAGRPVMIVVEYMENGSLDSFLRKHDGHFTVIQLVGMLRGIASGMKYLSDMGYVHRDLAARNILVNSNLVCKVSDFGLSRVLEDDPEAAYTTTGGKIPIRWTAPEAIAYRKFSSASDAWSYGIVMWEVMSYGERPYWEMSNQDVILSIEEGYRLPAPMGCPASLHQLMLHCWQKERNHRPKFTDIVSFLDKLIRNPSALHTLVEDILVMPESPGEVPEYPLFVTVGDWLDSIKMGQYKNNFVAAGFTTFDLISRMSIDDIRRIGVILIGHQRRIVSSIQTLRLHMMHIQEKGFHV
Conditions: EPHA6, 10 µM; read-out: score (%).

Test [6] has as its target T6, KinomeScan kinase panel (Homo sapiens, UniProt Q9UM73).
T6 construct: purchased DiscoveRx (KinomeScan)
Conditions: ALK, 10 µM; read-out: score (%).

T2 sequence (Q00536 whole entry): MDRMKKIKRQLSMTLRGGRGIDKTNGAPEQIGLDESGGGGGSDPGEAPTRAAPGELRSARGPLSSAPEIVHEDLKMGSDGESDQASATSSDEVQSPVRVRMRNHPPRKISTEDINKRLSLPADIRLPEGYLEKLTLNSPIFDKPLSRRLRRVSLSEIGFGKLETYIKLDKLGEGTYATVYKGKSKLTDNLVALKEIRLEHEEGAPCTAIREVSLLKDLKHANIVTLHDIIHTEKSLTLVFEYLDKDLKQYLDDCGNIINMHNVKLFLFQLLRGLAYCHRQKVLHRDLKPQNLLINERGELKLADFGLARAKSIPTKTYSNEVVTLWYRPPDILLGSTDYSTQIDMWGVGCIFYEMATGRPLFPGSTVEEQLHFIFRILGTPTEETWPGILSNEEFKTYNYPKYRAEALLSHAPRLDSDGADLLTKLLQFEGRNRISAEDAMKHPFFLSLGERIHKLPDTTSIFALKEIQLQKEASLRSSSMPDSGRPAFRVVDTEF
T1 sequence (O75116 whole entry): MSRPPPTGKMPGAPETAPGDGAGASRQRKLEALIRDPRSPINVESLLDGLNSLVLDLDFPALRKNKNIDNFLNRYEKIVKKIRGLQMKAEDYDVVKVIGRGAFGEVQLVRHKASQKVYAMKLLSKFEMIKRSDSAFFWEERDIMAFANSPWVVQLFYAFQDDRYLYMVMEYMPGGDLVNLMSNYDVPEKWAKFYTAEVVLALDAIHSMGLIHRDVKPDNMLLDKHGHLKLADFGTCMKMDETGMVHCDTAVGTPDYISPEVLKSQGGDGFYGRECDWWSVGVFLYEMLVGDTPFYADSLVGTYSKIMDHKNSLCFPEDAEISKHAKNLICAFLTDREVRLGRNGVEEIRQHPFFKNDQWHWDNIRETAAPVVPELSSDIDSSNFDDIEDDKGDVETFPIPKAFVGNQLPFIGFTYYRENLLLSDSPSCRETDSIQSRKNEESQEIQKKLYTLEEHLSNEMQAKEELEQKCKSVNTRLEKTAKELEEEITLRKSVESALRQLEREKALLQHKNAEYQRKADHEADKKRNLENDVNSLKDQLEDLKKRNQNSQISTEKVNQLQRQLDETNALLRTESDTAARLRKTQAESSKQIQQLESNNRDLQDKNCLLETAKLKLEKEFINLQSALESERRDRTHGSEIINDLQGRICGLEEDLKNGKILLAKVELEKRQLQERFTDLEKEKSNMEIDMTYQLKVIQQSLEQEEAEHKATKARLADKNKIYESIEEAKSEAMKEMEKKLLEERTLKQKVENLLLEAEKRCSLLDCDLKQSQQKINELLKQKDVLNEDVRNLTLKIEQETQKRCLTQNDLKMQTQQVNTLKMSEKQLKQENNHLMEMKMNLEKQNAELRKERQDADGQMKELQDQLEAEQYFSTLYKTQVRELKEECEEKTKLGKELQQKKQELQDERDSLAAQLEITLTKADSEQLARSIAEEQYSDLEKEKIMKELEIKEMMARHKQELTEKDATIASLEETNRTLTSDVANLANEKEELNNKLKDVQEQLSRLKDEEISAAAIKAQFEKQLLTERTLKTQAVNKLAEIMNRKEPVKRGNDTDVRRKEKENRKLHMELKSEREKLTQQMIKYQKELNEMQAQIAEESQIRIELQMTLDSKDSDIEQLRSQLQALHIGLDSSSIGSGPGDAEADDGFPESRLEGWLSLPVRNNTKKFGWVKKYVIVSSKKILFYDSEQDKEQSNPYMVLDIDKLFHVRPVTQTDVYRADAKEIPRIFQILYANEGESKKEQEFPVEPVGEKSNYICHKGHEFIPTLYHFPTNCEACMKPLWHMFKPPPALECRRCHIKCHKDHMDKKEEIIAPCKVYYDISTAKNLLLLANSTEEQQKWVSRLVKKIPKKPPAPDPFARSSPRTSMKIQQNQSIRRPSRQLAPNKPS
T6 sequence (Q9UM73 19-1620): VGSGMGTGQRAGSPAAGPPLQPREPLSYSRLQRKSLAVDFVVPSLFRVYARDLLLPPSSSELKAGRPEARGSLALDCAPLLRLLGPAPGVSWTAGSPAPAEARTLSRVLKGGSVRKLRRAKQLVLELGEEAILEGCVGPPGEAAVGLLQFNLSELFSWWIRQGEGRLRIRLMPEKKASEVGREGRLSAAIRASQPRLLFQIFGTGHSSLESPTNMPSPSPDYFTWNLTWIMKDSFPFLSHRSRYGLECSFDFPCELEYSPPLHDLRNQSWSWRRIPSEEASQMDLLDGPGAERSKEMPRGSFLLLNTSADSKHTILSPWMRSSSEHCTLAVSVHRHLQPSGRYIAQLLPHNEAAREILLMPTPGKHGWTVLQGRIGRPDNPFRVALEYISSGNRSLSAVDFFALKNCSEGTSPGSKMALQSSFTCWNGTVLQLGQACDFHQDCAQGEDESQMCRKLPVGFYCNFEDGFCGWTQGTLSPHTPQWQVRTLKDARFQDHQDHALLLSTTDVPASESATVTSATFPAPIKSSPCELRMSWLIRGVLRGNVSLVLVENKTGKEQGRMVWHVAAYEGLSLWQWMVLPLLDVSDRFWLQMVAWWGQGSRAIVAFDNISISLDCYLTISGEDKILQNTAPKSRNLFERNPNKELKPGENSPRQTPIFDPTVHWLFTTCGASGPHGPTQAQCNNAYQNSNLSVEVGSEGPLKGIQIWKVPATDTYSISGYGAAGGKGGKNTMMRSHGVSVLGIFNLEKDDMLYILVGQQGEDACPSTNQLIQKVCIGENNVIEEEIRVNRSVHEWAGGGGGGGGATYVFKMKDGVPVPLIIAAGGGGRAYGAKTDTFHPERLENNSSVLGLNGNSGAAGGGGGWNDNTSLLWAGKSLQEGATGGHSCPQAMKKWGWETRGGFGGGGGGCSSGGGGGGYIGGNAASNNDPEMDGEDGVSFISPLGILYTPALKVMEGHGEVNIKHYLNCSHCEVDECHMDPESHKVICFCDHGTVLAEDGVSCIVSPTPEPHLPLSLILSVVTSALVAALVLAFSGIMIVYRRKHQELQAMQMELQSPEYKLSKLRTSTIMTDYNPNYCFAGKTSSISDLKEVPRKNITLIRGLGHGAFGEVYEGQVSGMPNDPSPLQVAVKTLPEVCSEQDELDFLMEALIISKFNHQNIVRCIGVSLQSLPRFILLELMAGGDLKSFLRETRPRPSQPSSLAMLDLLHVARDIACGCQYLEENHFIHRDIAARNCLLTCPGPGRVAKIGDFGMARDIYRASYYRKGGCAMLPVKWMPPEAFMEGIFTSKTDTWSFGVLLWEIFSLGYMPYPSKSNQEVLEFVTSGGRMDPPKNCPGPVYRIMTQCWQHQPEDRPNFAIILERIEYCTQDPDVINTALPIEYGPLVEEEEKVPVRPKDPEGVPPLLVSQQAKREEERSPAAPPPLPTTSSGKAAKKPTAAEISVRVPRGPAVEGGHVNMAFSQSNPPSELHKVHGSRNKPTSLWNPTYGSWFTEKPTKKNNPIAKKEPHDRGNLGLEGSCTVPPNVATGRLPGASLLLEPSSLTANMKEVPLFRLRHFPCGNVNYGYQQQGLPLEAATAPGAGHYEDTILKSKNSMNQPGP

`CCN1CCN(Cc2ccc(NC(=O)c3ccc(C)c(NC(=O)c4cncc(-c5cccs5)c4)c3)cc2C(F)(F)F)CC1` [ALW-II-41-27]: the remaining binding at 10 µM at KinomeScan kinase panel [1] (ROCK2, 10 µM) was 18%; at KinomeScan kinase panel [2], > 30%; at KinomeScan kinase panel [3], 0.6%; on KinomeScan kinase panel [4] (PRKD1, 10 µM) it was > 30%; on KinomeScan kinase panel [5] it was 28%; on KinomeScan kinase panel [6], > 30%.
As for `CCN1CCN(Cc2ccc(NC(=O)c3ccc(C)c(/C=C/c4cnc5[nH]ccc5c4Cl)c3)cc2C(F)(F)F)CC1` [HG-6-63-01, (E)-3-(2-(4-chloro-1H-pyrrolo[2,3-b]pyridin-5-yl)vinyl)-N-(4-((4-ethylpiperazin-1-yl)methyl)-3-(trifluoromethyl)phenyl)-4-methylbenzamide], the remaining binding at 10 µM at KinomeScan kinase panel [1] (ROCK2, 10 µM) is > 30%; on KinomeScan kinase panel [2] it was > 30%; on KinomeScan kinase panel [3], 0.25%; at KinomeScan kinase panel [4] (PRKD1, 10 µM) it was > 30%; at KinomeScan kinase panel [5] it was 6.7%; on KinomeScan kinase panel [6] it was > 30%.
Turning to `CCN1CCN(Cc2ccc(NC(=O)c3ccc(C)c(C#Cc4cccnc4)c3)cc2C(F)(F)F)CC1` [XMD15-44], the remaining binding at 10 µM was determined as 19% on KinomeScan kinase panel [1] (kinase ROCK2, 10 µM); 8.4% on KinomeScan kinase panel [2]; 0% at KinomeScan kinase panel [3]; 51% at KinomeScan kinase panel [4] (kinase PRKD1, 10 µM); 0% at KinomeScan kinase panel [5]; 23% on KinomeScan kinase panel [6].
